Data published in US20240101600A1, “FIBROBLAST GROWTH FACTOR RECEPTOR (FGFR)-TARGETING ANTAGONISTIC SHORT PEPTIDE” (WENZHOU MEDICAL UNIVERSITY, priority 2019, published 2024).
Where no end group is shown, it is not given here.

Columns and labels:
[1] = molecular target: T1, FGFR1 (Mus musculus, UniProt P16092); assay: Western blot of bFGF-induced FGFR1 activation in Balb/c 3T3 fibroblasts; assay type: cell-based; parameters: endogenous in cells; host or cells: MEF-WT; Balb/c 3T3; settings: P48 pretreatment 10 min, bFGF 15 min
T1 sequence (P16092 22-822): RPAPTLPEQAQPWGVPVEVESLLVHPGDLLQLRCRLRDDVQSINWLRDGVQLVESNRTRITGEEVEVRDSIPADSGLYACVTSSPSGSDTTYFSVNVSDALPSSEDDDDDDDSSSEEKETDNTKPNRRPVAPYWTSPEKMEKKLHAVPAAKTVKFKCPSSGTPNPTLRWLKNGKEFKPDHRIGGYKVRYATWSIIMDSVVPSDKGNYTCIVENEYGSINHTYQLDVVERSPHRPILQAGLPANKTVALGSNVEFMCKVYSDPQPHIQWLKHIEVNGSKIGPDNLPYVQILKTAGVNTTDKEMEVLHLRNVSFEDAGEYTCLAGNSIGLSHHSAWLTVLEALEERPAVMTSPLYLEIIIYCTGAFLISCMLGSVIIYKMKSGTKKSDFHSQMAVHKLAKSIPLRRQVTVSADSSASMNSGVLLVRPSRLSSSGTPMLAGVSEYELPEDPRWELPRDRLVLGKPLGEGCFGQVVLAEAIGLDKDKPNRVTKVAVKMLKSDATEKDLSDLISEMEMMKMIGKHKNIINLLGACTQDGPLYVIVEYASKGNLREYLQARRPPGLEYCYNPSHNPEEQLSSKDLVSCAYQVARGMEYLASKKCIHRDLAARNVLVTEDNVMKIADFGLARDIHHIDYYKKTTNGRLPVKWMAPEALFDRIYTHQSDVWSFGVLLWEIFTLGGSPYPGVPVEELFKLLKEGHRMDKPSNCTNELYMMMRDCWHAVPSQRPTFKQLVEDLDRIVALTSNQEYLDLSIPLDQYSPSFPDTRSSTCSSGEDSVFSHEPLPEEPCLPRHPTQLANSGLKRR
Method: (§1) Human embryonic kidney cells HEK-293, fibroblasts MEF-WT and Balb/c 3T3 were inoculated into 6-well plates, respectively. After growing adherently overnight, the cells were pretreated with P48 for 10 min or with AZD4547/PD173074/SSR for 2 h, and incubated with bFGF for 15 min. […] The experimental procedure was as follows: MEF-WT and MEFKO (FGFR1-FGFR2-FRS2a) cells (1×10^6 cells/ml) were inoculated in a 35 mm petri dish. After being adhered to the wall of petri dish overnight, the cells were washed with PBS; FITC-conjugated P48 (1, 10, 100 and 1000 nM) was added, and the cells were incubated in an incubator for 30 min. The cells were immobilized with 1% paraformaldehyde in the dark and washed with PBS. An expression level of the FITC was measured at a fluorescence channel 1 (FL-1) (530 nm), with an excitation wavelength of 488 nm. Data analysis was conducted using CellQuest software (Becton Dickinson).

[2] = molecular target: T1, FGFR1; assay: Western blot of bFGF-induced FGFR1 activation in MEF-WT fibroblasts; assay type: cell-based; parameters: endogenous in cells; host or cells: MEF-WT; Balb/c 3T3; settings: P48 pretreatment 10 min, bFGF 15 min
Method: as §1

[3] = system: PLCy; assay: Western blot of FGFR1 downstream protein PLCy in MEF-WT cells; assay type: cell-based; settings: bFGF stimulation 15 min
Method: as §1

[4] = system: FGFR1; assay: Flow cytometry binding of FITC-conjugated P48 to MEF-WT and FGFR1-FGFR2-FRS2a knock-out MEF cells; assay type: cell-based; settings: FITC-conjugated P48 1, 10, 100, 1000 nM, 30 min
Method: as §1

[5] = system: SGC-7901 cells; assay: MTT viability, SGC-7901 cells; assay type: cell-based; settings: 48 h with bFGF
Method: (§2) In vitro anti-tumor activity of a short peptide compound P48 Hela229 (1500 cells/100 μl), B16-F10 (1000 cells/100 μl), NCI-H460 (4000 cells/100 μl) and SGC7901 (4000 cells/100 μl) cells were inoculated in 96-well plates. After incubated overnight adherently, the original medium was replaced with a Dulbecco's modified eagle medium (DMEM) containing 0.1% fetal bovine serum (FBS) or a Roswell Park Memorial Institute 1640 (RPMI-1640) medium containing 0.1% FBS, and culture was continued for 24 h. A mixture of P48 and bFGF, or bFGF alone were added into corresponding wells, and incubated for 48 h; an MTT solution (5 mg/mL) prepared by PBS was added to the cells in each well at 37° C., and treated for 4 h. The MTT was removed by aspiration, 150 μL of DMSO was added to each well, shaking was conducted for 10 min, and an optical density (OD) value was quantified with a microplate reader (SpectraMax M2/M2e, Molecular Devices, Sunnyvale, USA) at a wavelength of 490 nm. The percentage of drug growth inhibition rate was calculated by comparing with the bFGF group. […] The experimental procedure was as follows: 10% FBS-containing medium (500 μl) was added to a lower surface of a transwell insertion chamber, the cells together with the drug were inoculated into an upper chamber, and cultured with a serum-free medium (200 μl). […]

[6] = molecular target: FGFR2B (Homo sapiens, UniProt P21802); assay: SPR detection of interaction with FGFR2B; assay type: binding
Sequence of FGFR2B (P21802 22-822 isoform P21802-3 limits assumed): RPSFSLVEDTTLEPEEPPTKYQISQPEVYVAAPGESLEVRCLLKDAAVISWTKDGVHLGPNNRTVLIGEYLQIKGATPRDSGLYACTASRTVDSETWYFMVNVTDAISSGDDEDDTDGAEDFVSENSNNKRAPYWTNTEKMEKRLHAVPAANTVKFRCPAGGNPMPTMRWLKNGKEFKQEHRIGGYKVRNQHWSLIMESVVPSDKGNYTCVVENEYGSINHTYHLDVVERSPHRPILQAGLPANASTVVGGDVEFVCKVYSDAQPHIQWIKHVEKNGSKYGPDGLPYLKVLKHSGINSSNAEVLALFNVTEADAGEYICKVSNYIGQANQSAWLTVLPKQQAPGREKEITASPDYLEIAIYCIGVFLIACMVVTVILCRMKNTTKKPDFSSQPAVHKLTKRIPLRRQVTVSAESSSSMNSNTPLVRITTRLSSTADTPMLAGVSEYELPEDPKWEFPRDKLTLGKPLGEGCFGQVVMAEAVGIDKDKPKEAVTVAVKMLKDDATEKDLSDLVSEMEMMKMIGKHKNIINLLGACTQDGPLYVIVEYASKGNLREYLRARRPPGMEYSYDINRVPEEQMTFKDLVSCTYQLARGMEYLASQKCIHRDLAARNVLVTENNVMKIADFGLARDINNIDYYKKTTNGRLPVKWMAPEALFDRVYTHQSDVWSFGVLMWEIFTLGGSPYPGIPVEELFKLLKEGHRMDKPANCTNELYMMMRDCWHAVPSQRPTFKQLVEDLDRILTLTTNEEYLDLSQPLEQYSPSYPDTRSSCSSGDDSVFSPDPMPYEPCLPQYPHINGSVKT

[7] = molecular target: FGFR3B (Homo sapiens, UniProt P22607); assay: SPR detection of interaction with FGFR3B; assay type: binding
Sequence of FGFR3B (P22607 23-808 isoform P22607-2 limits assumed): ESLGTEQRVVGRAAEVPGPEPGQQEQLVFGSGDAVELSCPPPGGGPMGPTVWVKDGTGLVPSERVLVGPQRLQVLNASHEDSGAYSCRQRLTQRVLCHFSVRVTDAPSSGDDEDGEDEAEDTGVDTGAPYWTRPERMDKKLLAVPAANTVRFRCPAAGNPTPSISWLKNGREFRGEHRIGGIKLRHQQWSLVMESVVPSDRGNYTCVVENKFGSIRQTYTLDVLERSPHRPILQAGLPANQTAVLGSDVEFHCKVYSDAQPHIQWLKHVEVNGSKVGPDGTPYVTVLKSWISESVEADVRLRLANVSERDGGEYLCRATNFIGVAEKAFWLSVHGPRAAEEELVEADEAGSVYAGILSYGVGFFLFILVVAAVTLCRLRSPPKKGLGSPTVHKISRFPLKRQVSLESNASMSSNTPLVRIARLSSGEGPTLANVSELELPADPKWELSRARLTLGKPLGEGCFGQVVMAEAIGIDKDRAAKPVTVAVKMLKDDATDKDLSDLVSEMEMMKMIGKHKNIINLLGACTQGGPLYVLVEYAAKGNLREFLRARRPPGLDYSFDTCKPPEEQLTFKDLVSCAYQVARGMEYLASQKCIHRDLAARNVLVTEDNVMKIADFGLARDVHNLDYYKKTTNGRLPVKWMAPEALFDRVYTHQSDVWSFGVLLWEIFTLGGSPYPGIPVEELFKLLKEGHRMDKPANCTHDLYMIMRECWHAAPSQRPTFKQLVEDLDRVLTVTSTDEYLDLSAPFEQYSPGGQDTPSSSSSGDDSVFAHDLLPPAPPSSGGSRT

[8] = system: Hela229 cells; assay: MTT viability, Hela229 cells; assay type: cell-based; settings: 48 h with bFGF
Method: as §2

[9] = system: gastric cancer cells SGC-7901; assay: Transwell migration of SGC-7901 cells; assay type: cell-based; settings: 24 h
Method: as §2

[10] = molecular target: T1, FGFR1; assay: Western blot of FGFR1 signaling pathway in melanoma B16-F10; assay type: cell-based; parameters: endogenous in cells; settings: bFGF stimulation
Method: (§3) Cervical cancer cells Hela229, melanoma B16-F10, lung cancer cells NCI-H460, gastric cancer cells SGC-7901 and MGC-803 were inoculated into 6-well plates, respectively. After growing adherently overnight, the cells were pretreated with P48 for 10 min or with AZD4547/SSR for 2 h, and incubated with bFGF for 15 min or with KGF for 20 min.

[11] = system: NCI-H460 cells; assay: MTT viability, NCI-H460 cells; assay type: cell-based; settings: 48 h with bFGF
Method: as §2

[12] = molecular target: T2, EGFR (Homo sapiens, UniProt P00533, DEL746-750); assay: Western blot of EGFR and ERK1/2 in PC-9 cells under EGF stimulation; assay type: cell-based; settings: EGF 10 min
T2 construct: endogenous in cells; host or cells: PC-9

[13] = molecular target: T3, FGFR1 (Homo sapiens, UniProt P11362); assay: Western blot of FGFR1 signaling pathway in gastric cancer cells SGC-7901 and MGC-803; assay type: cell-based; parameters: endogenous in cells; host or cells: Hela229; NCI-H460; SGC-7901; MGC-803
T3 sequence (P11362 22-822): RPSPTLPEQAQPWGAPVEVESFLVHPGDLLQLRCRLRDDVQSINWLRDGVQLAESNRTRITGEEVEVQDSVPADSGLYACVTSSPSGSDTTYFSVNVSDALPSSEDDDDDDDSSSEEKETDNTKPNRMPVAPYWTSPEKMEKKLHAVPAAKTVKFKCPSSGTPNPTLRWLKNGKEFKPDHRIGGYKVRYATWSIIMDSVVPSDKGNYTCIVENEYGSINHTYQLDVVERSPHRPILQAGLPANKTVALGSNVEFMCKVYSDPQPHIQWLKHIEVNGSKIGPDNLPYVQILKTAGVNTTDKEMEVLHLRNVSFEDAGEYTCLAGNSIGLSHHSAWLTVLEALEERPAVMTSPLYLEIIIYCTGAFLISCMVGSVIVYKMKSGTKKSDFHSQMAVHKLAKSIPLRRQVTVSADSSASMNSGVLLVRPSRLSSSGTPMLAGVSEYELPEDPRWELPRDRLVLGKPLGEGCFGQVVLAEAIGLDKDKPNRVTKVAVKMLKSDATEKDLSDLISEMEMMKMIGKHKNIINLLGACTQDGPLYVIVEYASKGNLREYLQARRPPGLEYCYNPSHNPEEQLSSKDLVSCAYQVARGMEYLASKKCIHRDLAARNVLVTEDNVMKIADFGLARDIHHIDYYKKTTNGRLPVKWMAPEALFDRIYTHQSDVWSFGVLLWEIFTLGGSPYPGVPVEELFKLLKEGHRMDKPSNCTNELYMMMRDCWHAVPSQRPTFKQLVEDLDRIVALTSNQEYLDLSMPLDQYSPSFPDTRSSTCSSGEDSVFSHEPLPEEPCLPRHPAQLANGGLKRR
Method: as §3

[14] = molecular target: T3, FGFR1; assay: Western blot of FGFR1 signaling pathway in lung cancer cells NCI-H460; assay type: cell-based; parameters: endogenous in cells; host or cells: Hela229; NCI-H460; SGC-7901; MGC-803; settings: bFGF stimulation
Method: as §3

[15] = gastric cancer cell lines, bFGF stimulation

binding to FGFR2B [6]: can be bound
binding to FGFR3B [7]: can be bound
effect on EGF stimulation (phosphorylated EGFR and ERK1/2) [12]: has no effect
effect on KGF stimulation ([13]; SGC-7901, KGF 20 min): has no effect
effect on aFGF stimulation ([13]; SGC-7901, aFGF 15 min): has no effect
activity on FGFR1 signaling compared with AZD4547 [13, 15]: weaker than that of AZD4547
inhibitory effect on FGFR1 signaling compared with SSR [13, 15]: comparable to that of the SSR
Substance: SPPRYPGGGS-NH2 [P48, Ser-Pro-Pro-Arg-Tyr-Pro-Gly-Gly-Gly-Ser-NH2]
inhibition of FGFR1 activation induced by bFGF [1]: can inhibit activation of FGFR1 induced by bFGF in a concentration-dependent manner
inhibition of FGFR1 activation induced by bFGF [2]: can inhibit activation of FGFR1 induced by bFGF in a concentration-dependent manner
inhibitory effect on downstream PLCy [3]: no significant inhibitory effect
binding to wild-type versus FGFR1-FGFR2-FRS2a knock-out MEF cells [4]: only has a binding effect on the wild-type MEF cells
inhibition of cancer cell viability [5]: can significantly inhibit the viability of cancer cells
inhibition of cancer cell viability [8]: can significantly inhibit the viability of cancer cells
inhibition of cell migration [9]: can inhibit cell migration in a concentration-dependent manner
inhibition of FGFR1 signaling pathway [10]: can inhibit the FGFR1 signaling pathway of cervical cancer, melanoma, lung cancer and gastric cancer in a concentration-dependent manner
inhibition of cancer cell viability [11]: can significantly inhibit the viability of cancer cells
inhibition of FGFR1 activation under bFGF stimulation ([13]; SGC-7901, bFGF 15 min): can only inhibit the activation of FGFR1 induced by bFGF
inhibition of FGFR1 signaling pathway ([13]; gastric cancer (SGC-7901, MGC-803), bFGF stimulation): can inhibit the FGFR1 signaling pathway of cervical cancer, melanoma, lung cancer and gastric cancer in a concentration-dependent manner
inhibition of FGFR1 signaling pathway [14]: can inhibit the FGFR1 signaling pathway of cervical cancer, melanoma, lung cancer and gastric cancer in a concentration-dependent manner
